Consider five compounds from paper PMC3543412, “Fatty Acid Solubilizer from the Oral Disk of the Blowfly” (PLoS ONE, 2013).

Experiment [1] concerns the target T1, PregOBP56a (Phormia regina odorant-binding protein 56a) (Phormia regina, UniProt L8B8J6).
T1 construct: recombinant mature PregOBP56a (117 amino acid residues)
T1 sequence (L8B8J6 19-135): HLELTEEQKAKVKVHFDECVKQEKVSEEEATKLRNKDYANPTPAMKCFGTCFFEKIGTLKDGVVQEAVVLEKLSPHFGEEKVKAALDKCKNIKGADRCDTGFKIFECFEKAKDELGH
The experiment in a line: direct fluorescence titration of the reporter probe, pH […].

Experiment [2] has as its target T1, PregOBP56a (Phormia regina odorant-binding protein 56a). Briefly: fluorescence competitive binding assay (1-NPN displacement), pH […].

On to `c1ccc(Nc2cccc3ccccc23)cc1` [1-NPN, N-phenyl-1-naphthylamine], for which, in experiment [1], the affinity, expressed as Kd, was 11400 nM.
For `CCCCC/C=C\C/C=C\CCCCCCCC(=O)O` [linoleic acid], the Kd (usually the free concentration of one partner at which half of the binding sites on the other are occupied at equilibrium, for simple one-to-one binding) in experiment [2] turned out to be 510 nM.
As for `CCCCCCCC/C=C\CCCCCCCC(=O)O` [oleic acid], the Kd in experiment [2] worked out at 710 nM.
Turning to `CCCCCCCCCCCCCCCC(=O)O` [palmitic acid], the Kd in experiment [2] worked out at 280 nM.
Same read-out and setting: to `CCCCCCCCCCCCCCCCCC(=O)O` [stearic acid] belongs 350 nM.
